From patent US11306102B2, “1,3-di-substituted ketene compound and application thereof” (BEBETTER MED INC., priority 2017, dated 2022)

What was measured:
[1] = molecular target: T1, PPARγ (Homo sapiens, UniProt P37231); test: Hela cell/luciferase reporter gene method, PPARγ agonist activity; type: cell-based; settings: for EC50: Hela cells, pPPRE3-TK-Luciferase reporter, 24 hrs incubation, read-out: agonistic activity on PPARγ (EC50)
T1 construct: expressed in transfected cells; host or cells: Hela cells
T1 sequence (P37231 1-505): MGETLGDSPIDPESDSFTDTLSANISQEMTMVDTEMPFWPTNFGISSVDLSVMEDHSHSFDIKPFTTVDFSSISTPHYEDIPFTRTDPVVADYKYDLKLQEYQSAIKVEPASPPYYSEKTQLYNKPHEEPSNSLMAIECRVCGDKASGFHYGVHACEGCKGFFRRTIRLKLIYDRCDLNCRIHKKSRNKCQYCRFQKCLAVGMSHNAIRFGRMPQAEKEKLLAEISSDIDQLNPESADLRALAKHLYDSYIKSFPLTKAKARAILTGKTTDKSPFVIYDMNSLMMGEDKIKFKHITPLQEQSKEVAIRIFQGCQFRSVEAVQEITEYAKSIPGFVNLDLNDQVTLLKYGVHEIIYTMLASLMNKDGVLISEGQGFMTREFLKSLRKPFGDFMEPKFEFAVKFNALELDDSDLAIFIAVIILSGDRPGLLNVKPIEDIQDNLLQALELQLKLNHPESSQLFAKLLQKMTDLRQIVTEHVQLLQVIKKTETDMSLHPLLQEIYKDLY
Experimental: This example measures the biological activity of a PPAR agonist using the Hela cell/luciferase reporter gene method.
The target plasmids PCMV PPARα (Ampicillin+), PCMV PPARγ (Ampicillin+), PCMV PPARδ (Ampicillin+), and pPPRE3-TK-Luciferase (Ampicillin+) were introduced into DH5a competent cells by heat shock treatment, respectively. After being incubated for 1 hour at 37° C. with shaking (180 rpm), the cells were inoculated on LB agar solid medium containing antibiotic Ampicillin, and invertedly cultured at 37° C. for 12-16 hours. Then the monoclonal colony cultured on the medium was taken and inoculated into LB liquid medium for expanded culture. The desired plasmid was extracted from the resulting bacterial solution with a Plasmid Midi Kit (Qiagen; #12143). The plasmid obtained by centrifugation was suspended in TE buffer, and the plasmid concentration was measured and the mixture was stored at −20° C. Hela cells in the exponential phase were seeded in 6-well plates (8-10^5 cells/well), and after 6-8 hours of culture, the cells were transfected using Lipofectamine® 3000 Transfection Reagent (Invitrogen; #L3000015). A plasmid containing a PPAR binding site (peroxisome proliferator response element, PPRE) and a firefly luciferase gene (pPPRE3-TK-Luciferase) and PPAR expression vector were co-transfected into a Hela cell with a total amount of plasmid DNA of 2.5 ug (the mass ratio of each PPAR expression vector is pPPRE:PPARα=6:1, pPPRE:PPARδ=8:1, and pPPRE:PPARγ=2:1) to construct a drug screening cell model for PPAR agonists. PPAR was binded to the ligand and then binded to the peroxisome proliferator response element (PPRE), thereby initiating downstream firefly luciferase expression and its expression intensity was directly proportional to the degree of PPAR activation. The cells after 24 hours transfection were prepared into a cell suspension with a cell concentration of […] by a complete culture solution, and seeded into a 96-well plate with 100 ul per well. After overnight culture, the medium was changed to a medium containing 1% FBS. 10 mM candidate compound stock (1000×) were 4-fold diluted in DMSO for 8 points, then supplemented with medium containing 1% FBS to a final concentration of 50 uM (5×) by addition of 25 μl of 5× compound diluent to each well in different concentration gradients and incubated under 37° C., 5% CO2 incubator for 24 hrs. The 96-well plate was taken out and 30 μl of Bright-Glo™ Luciferase Assay System (Promega #E2620) was added to each well. The Luciferase luminescence intensity was measured by a SynergyH1 full-function microplate detector. The obtained data was used to calculate EC50 using GraphPad Prism 5.0 software to determine the biological activity of the compound.
The agonistic activity of the compounds synthesized in Examples 1-41 on PPAR is represented by EC50 (see Table 1). EC50 refers to the drug concentration at which the compound has a 50% increase in the agonistic activity of the measured PPAR. The compound numbers in Table 1 correspond to the compound numbers in Examples 1-41.

[2] = Pharmacokinetic (PK) experiments after intragastric administration in rats; type: in vivo, SD rats; settings: for AUC(0-inf) / AUC(0-t) / Cmax / Tmax / half-life: male, SD, rat, plasma, po, intragastric administration 20 mg/kg; for half-life: read-out: Terminal T1/2 (converted)
Experimental: Male SD rats, weighing 250-300 grams, were fasted overnight before testing. The test compound was dissolved in 30% sulfobutyl-R-cyclodextrin (SBE-β-CD) and administered intragastrically at a dose of 20 mg/kg. Blood was collected 15 minutes, 30 minutes, and 1, 2, 3, 4, […] and 24 hours after the administration. About 0.3 ml of blood was collected at each time point, placed in a centrifuge tube containing K2-EDTA (dipotassium ethylenediamine tetraacetate) and centrifuged (2,000 g, 10 minutes, 4° C.) to take the plasma, which was stored in an ultra-low temperature refrigerator at −80° C. A 50 μL plasma sample was mixed with 5 μl of internal standard (IS) and extracted with ethyl acetate. The residue was redissolved in acetonitrile after drying under vacuum. The sample was filtered and injected into an LC-MS/MS for analysis.

SMILES	EC50 [1] [nM]	AUC(0-inf) [2] [ng·h/mL]	AUC(0-t) [2] [ng·h/mL]	Cmax [2] [ng/mL]	Tmax [2] [h]	half-life [2] [h]	absorption after oral administration compared with Elafibranor (in words) [2]	blood exposure after oral administration compared with Elafibranor (in words) [2]	half-life after oral administration compared with Elafibranor (in words) [2]	activation of PPARγ compared with Elafibranor (in words) [1]
CSc1ccc(C(=O)/C=C/c2cc(C)c(OC(C)(C)C(=O)O)c(C)c2)c2occc12 [Compound 5, (E)-2-(2,6-dimethyl-4-(3-(4-(methylthio)benzofuran-7-yl)-3-oxoprop-1-en-1-yl)phenoxy)-2-methylpropanoic acid]	26.2	3240	3110	2850	0.25	12.3	good absorption	highly effective blood exposure	significantly prolonged half-life	–
CCSc1ccc(C(=O)/C=C/c2cc(C)c(OC(C)(C)C(=O)O)c(C)c2)c2occc12 [Compound 6, (E)-2-(4-(3-(4-(ethylthio)benzofuran-7-yl)-3-oxoprop-1-en-1-yl)-2,6-dimethylphenoxy)-2-methylpropanoic acid]	62.6	–	–	–	–	–	–	–	–	–
CSc1ccc(C(=O)/C=C/c2cc(C)c(OC(C)(C)C(=O)O)c(C)c2)c2ccoc12 [Compound 27, (E)-2-(2,6-dimethyl-4-(3-(7-(methylthio)benzofuran-4-yl)-3-oxoprop-1-en-1-yl)phenoxy)-2-methylpropanoic acid]	124	–	–	–	–	–	–	–	–	–
Cc1cc(/C=C/C(=O)c2ccc3c(c2)CCS3)cc(C)c1OC(C)(C)C(=O)O [Compound 36, (E)-2-(4-(3-(2,3-dihydrobenzo[b]thiophen-5-yl)-3-oxoprop-1-en-1-yl)-2,6-dimethylphenoxy)-2-methylpropanoic acid]	31.6	3380	3340	2740	0.38	6.42	good absorption	highly effective blood exposure	significantly prolonged half-life	–
COc1ccc2cc(C(=O)/C=C/c3cc(C)c(OC(C)(C)C(=O)O)c(C)c3)oc2c1 [Compound 43, (E)-2-(4-(3-(6-methoxybenzofuran-2-yl)-3-oxoprop-1-en-1-yl)-2,6-dimethylphenoxy)-2-methylpropanoic acid]	116	1580	1550	2780	0.25	6.84	good absorption	highly effective blood exposure	significantly prolonged half-life	–
CSc1ccc2cc(C(=O)/C=C/c3cc(C)c(OC(C)(C)C(=O)O)c(C)c3)oc2c1 [Compound 51, (E)-2-(2,6-dimethyl-4-(3-(6-(methylthio)benzofuran-2-yl)-3-oxoprop-1-en-1-yl)phenoxy)-2-methylpropanoic acid]	35.3	479	412	484	0.25	12.3	good absorption	highly effective blood exposure	significantly prolonged half-life	little effect
CSc1cccc2oc(C(=O)/C=C/c3cc(C)c(OC(C)(C)C(=O)O)c(C)c3)cc12 [Compound 60, (E)-2-(2,6-dimethyl-4-(3-(4-(methylthio)benzofuran-2-yl)-3-oxoprop-1-en-1-yl)phenoxy)-2-methylpropanoic acid]	92.3	–	–	–	–	–	–	–	–	–
CSc1ccc2c(C)c(C(=O)/C=C/c3cc(C)c(OC(C)(C)C(=O)O)c(C)c3)oc2c1 [Compound 62, (E)-2-(2,6-dimethyl-4-(3-(3-methyl-6-(methylthio)benzofuran-2-yl)-3-oxoprop-1-en-1-yl)phenoxy)-2-methylpropanoic acid]	132	3150	3040	1830	0.25	8.87	good absorption	highly effective blood exposure	significantly prolonged half-life	weak activation
CCc1c(C(=O)/C=C/c2cc(C)c(OC(C)(C)C(=O)O)c(C)c2)oc2cc(SC)ccc12 [Compound 63, (E)-2-(4-(3-(3-ethyl-6-(methylthio)benzofuran-2-yl)-3-oxoprop-1-en-1-yl)-2,6-dimethylphenoxy)-2-methylpropanoic acid]	95.5	1720	1700	812	0.25	4.3	good absorption	highly effective blood exposure	significantly prolonged half-life	–
CCSc1ccc2c(C)c(C(=O)/C=C/c3cc(C)c(OC(C)(C)C(=O)O)c(C)c3)oc2c1 [Compound 74, (E)-2-(4-(3-(6-(ethylthio)-3-methylbenzofuran-2-yl)-3-oxoprop-1-en-1-yl)-2,6-dimethylphenoxy)-2-methylpropanoic acid]	29.3	–	–	–	–	–	–	–	–	–
CSc1ccc2cc(C(=O)/C=C/c3cc(C)c(OC(C)(C)C(=O)O)c(C)c3)sc2c1 [Compound 81, (E)-2-(2,6-dimethyl-4-(3-(6-(methylthio)benzo[b]thiophen-2-yl)-3-oxoprop-1-en-1-yl)phenoxy)-2-methylpropanoic acid]	94.1	811	806	302	0.25	3.35	good absorption	highly effective blood exposure	significantly prolonged half-life	–
CSc1ccc2cc(C(=O)/C=C/c3cc(Cl)c(OC(C)(C)C(=O)O)c(Cl)c3)oc2c1 [Compound 100, (E)-2-(2,6-dichloro-4-(3-(6-(methylthio)benzofuran-2-yl)-3-oxoprop-1-en-1-yl)phenoxy)-2-methylpropanoic acid]	475	14000	13800	7730	0.25	4.41	good absorption	highly effective blood exposure	significantly prolonged half-life	significantly reduced
